Data on 4 compounds can be found in patent publication EP1059033A1, “INDUSTRIAL ANTIBACTERIAL/ANTIFUNGAL AGENTS, ALGICIDES AND ANTI-BIOLOGICAL ADHESION AGENTS CONTAINING BENZYLAMINES” (Nissan Chemical Industries, Ltd., priority 1998, dated 1999).

SMILES strings stand for the structures. In brackets after ≈: the same amount, converted by molar mass. Where two headings read alike, the source gives them in different places.

The term MIC denotes the lowest concentration that inhibits growth of the organism. Higher therefore signals a less susceptible organism.

What all share (assay type): cell-based
The test system of assay [1] is Trichophyton mentagrophytes. Particulars: 72 h, 100 ppm.
In assay [2] the test system is Trichophyton mentagrophytes. Briefly: Agar dilution MIC (Example 2). Conditions: 168 h, agar plate, 27 °C, 7 days. In a few lines: (§1)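 Compounds in DMSO were mixed into sensitive medium-N agar (bacteria) or potato dextrose agar (fungi), giving final 0.062–1000 mg/l. Plates were streaked with 10^6 CFU/ml suspensions and incubated 18–20 h at 37±1 °C (bacteria) or 7 days at 27 °C (fungi). MIC (mg/l) is the lowest concentration with no visible growth.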

The next assay has as its system Alternaria alternata. Briefly: Agar dilution MIC (Example 3). Particulars: 168 h, agar plate, 27 °C, 7 days. The method in brief:
(§2)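 Compounds in DMSO were mixed into agar to final 1000–2.0 mg/l (twofold series); bacteria on sensitivity medium-N, fungi on potato dextrose agar. Plates were streaked with 10^6 CFU/ml suspensions and incubated 18–20 h at 37±1 °C (bacteria) or 7 days at 27 °C (fungi); MIC is the lowest concentration without growth.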
On the technique in general: In agar dilution the substance is mixed into plates at graded concentrations.

The next assay has as its system Aspergillus niger. Briefly: Agar dilution MIC (Example 3). Particulars: 168 h, agar plate, 27 °C, 7 days. The method in brief: as §2
The test system of a further assay is Candida albicans. Briefly: Agar dilution MIC (Example 3). Conditions: 168 h, agar plate, 27 °C, 7 days. In a few lines: as §2
The next assay deals with Chaetomium globosum. Briefly: Agar dilution MIC (Example 3). Conditions: 168 h, agar plate, 27 °C, 7 days. The method in brief:
as §2

For assay [3], the system named is Cladosporium cladosporioides. The assay is described as follows: Agar dilution MIC (Example 3). Particulars: 168 h, agar plate, 27 °C, 7 days. The method in brief: as §2
The subject of assay [4] is Corynebacterium aquaticum. The assay is described as follows: Agar dilution MIC (Example 3). Conditions: Leifsonia aquatica, agar plate, 37±1 °C, 18 to 20 hours. In a few lines: as §2
For another assay, the system named is Fusarium moniliforme. Briefly: Agar dilution MIC (Example 3). Conditions: Fusarium verticillioides, 168 h, agar plate, 27 °C, 7 days. The method in brief:
as §2

In a further assay the test system is Penicillium funiculosum. The assay is described as follows: Agar dilution MIC (Example 3). Particulars: Talaromyces funiculosus, 168 h, agar plate, 27 °C, 7 days. In a few lines:
as §2

A further assay has as its system Rhodotorula rubra. The assay is described as follows: Agar dilution MIC (Example 3). Conditions: 168 h, agar plate, 27 °C, 7 days. In a few lines: as §2
For another assay, the system named is Saccharomyces cerevisiae. The assay is described as follows: Agar dilution MIC (Example 3). Particulars: 168 h, agar plate, 27 °C, 7 days. In a few lines:
as §2

Assay [5] deals with Trichophyton mentagrophytes. Briefly: Agar dilution MIC (Example 3). Conditions: 168 h, agar plate, 27 °C, 7 days. In a few lines:
as §2

In assay [6] the test system is freshwater green alga (Selenastrum capricornutum). The assay is described as follows: Inhibition of propagation of freshwater green alga (Example 4). Particulars: for inhibition at 0.05 ppm: read-out: Propagation inhibiting rate(%) 50ppb; for inhibition at 0.5 ppm: read-out: Propagation inhibiting rate(%) 500ppb. The method in brief: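 Inhibition was derived from hemacytometer cell counts taken at 72 h and compared with an untreated control. Cultures started at 10^5 cells/ml in log phase, contained 50 or 500 ppb compound, and were kept still under continuous illumination at 23±1 °C.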

Assay [7] has as its system seawater diatom [Nitzschia closterium]. The assay is described as follows: Inhibition of propagation of seawater diatom (Example 5). Particulars: Cylindrotheca closterium, 72 h, read-out: Propagation inhibiting rate(%) 500ppb.
Assay [8] has as its system Bacillus subtilis. Briefly: Agar dilution MIC (Example 2). Particulars: agar plate, 37±1 °C, 18 to 20 hours. In a few lines: as §1
Assay [9] has as its system Bacillus subtilis. Briefly: Agar dilution MIC (Example 3). Conditions: agar plate, 37±1 °C, 18 to 20 hours. In a few lines:
as §2

In another assay the test system is Staphylococcus aureus. Briefly: Agar dilution MIC (Example 3). Conditions: agar plate, 37±1 °C, 18 to 20 hours. In a few lines:
as §2

In a further assay the test system is Rhodotorula mucilaginosa. Briefly: Agar dilution MIC (Example 2). Particulars: 168 h, agar plate, 27 °C, 7 days. In a few lines: as §1
The subject of another assay is Micrococcus luteus. The assay is described as follows: Agar dilution MIC (Example 3). Conditions: agar plate, 37±1 °C, 18 to 20 hours. The method in brief:
as §2

Setting [10] is: 500ppb, after 72 hours, cell number vs non-treated lot.

Take `Cc1cccc(CN(C)Cc2ccc(C(C)(C)C)cc2)c1C` [Compound 4]: the “Judgment (Target bacteria: A)” value in assay [1] is reported as “++ (strongly inhibiting zone (equal to or more than 21 mm) is observed)”. Also, the MIC in assay [2] is less than 2 µg/mL; in the assay with Alternaria alternata, 31.3 µg/mL (≈ 106 µM); against Aspergillus niger it was 15.6 µg/mL (≈ 52.8 µM); against Candida albicans it was 62.5 µg/mL (≈ 212 µM); against Chaetomium globosum it was 31.3 µg/mL (≈ 106 µM); in assay [3] it was 31.3 µg/mL (≈ 106 µM). Further, the MIC in [4] is 31.3 µg/mL (≈ 106 µM); in the assay on Fusarium moniliforme, 31.3 µg/mL (≈ 106 µM); against Penicillium funiculosum, 15.6 µg/mL (≈ 52.8 µM); against Rhodotorula rubra it was 63 µg/mL (≈ 213 µM); in the assay on Saccharomyces cerevisiae, 63 µg/mL (≈ 213 µM); in [5], less than 2 µg/mL. Besides, the inhibition at 0.05 ppm in [6] (50ppb, after 72 hours, cell number vs non-treated lot) was determined as 64%. Moreover, the inhibition at 0.5 ppm in assay [6] (setting [10]) was 95%; in assay [7], 70%.

For the compound `CC(C)(C)c1ccc(CNCc2cccc(Cl)c2Cl)cc1` [Compound 16], the MIC was 7.8 µg/mL (≈ 24.2 µM) in the assay with Bacillus subtilis [8]; 7.8 µg/mL (≈ 24.2 µM) in assay [2]; 125 µg/mL (≈ 388 µM) with Aspergillus niger; 7.8 µg/mL (≈ 24.2 µM) in the assay with Bacillus subtilis [9]; 62.5 µg/mL (≈ 194 µM) against Candida albicans; 62.5 µg/mL (≈ 194 µM) in the assay on Penicillium funiculosum. Besides, in assay [5], the MIC stood at 7.8 µg/mL (≈ 24.2 µM). Moreover, the inhibition at 0.5 ppm in assay [6] (setting [10]) turned out to be 90%; in assay [7], 80%.

Turning to `CN(Cc1ccc(C(C)(C)C)cc1)Cc1ccc(Cl)c(Cl)c1` [Compound 3], the “Judgment (Target bacteria: A)” value in [1] is given as “+ (inhibiting zone (10 to 20 mm) is observed)”. The MIC with Bacillus subtilis [8] was 125 µg/mL (≈ 372 µM); in assay [2], less than 2 µg/mL; in the assay on Bacillus subtilis [9] it was 125 µg/mL (≈ 372 µM); in the assay with Staphylococcus aureus it was 125 µg/mL (≈ 372 µM); in assay [5], less than 2 µg/mL. For the same compound, the inhibition at 0.05 ppm in [6] (72 h) turned out to be 90%. Further, the inhibition at 0.5 ppm in assay [6] (72 h) amounted to 94%.

Turning to `Cc1cccc(CNCc2ccc(C(C)(C)C)cc2)c1C` [Compound 27], the MIC against Bacillus subtilis [8] worked out at 31.3 µg/mL (≈ 111 µM); in the assay with Rhodotorula mucilaginosa, 15.6 µg/mL (≈ 55.4 µM); in assay [2] it was 7.8 µg/mL (≈ 27.7 µM); in the assay on Alternaria alternata, 125 µg/mL (≈ 444 µM); in the assay on Chaetomium globosum, 63 µg/mL (≈ 224 µM); in assay [3] it was 125 µg/mL (≈ 444 µM). The MIC in assay [4] came out at 7.8 µg/mL (≈ 27.7 µM); against Micrococcus luteus, 15.6 µg/mL (≈ 55.4 µM); with Rhodotorula rubra, 125 µg/mL (≈ 444 µM); in the assay on Saccharomyces cerevisiae it was 63 µg/mL (≈ 224 µM). For the same compound, the inhibition at 0.5 ppm in assay [6] (setting [10]) was determined as 89%; in [7], 90%.
